Values quoted from earlier work as cited in patent US20090162858A1, “Orthogonal chemical inducer of dimerization” (priority 2007, published 2009).

Tested on: wild type Saccrharomyces cerevisiae
Conditions: [Game, 1975]

Compound | growth of wild type yeast
COc1cc(Cc2cnc(N)nc2N)cc(OC)c1OC [Trimethoprim, 2,4-diamino-5-(3,4,5-trimethoxybenzyl)pyrimidine] | does not
CN(Cc1cnc2nc(N)nc(N)c2n1)c1ccc(C(=O)N[C@@H](CCC(=O)O)C(=O)O)cc1 [Methotrexate] | inhibits growth
